Source: EPA's ToxRefDB 2

Legend:
[1] = tested on: rat; details: Subchronic oral toxicity in rodents, fischer, Feed, dose end: 13 week, group: systemic
[2] = tested on: mouse; details: Subchronic oral toxicity in rodents, b6c3f1, Feed, dose end: 13 week, group: systemic, systemic / in life observation / body weight / body weight + systemic / in life observation / body weight / body weight gain
[3] = tested on: rat; details: Developmental neurotoxicity study, sprague dawley, Oral, Gavage/Intubation, dose end: 90 PND, group: cannot be grouped
[4] = tested on: rat; details: Combined chronic toxicity/carcinogenicity, fischer, Oral, Feed, dose end: 2 year, group: systemic
[5] = tested on: rat; details: Developmental neurotoxicity study; sprague dawley; Oral; Gavage/Intubation; dose end: 57 PND; group: cannot be grouped; reproductive / offspring survival early / birth index / birth index + systemic / in life observation / body weight / body weight + …
[6] = tested on: mouse; details: Developmental neurotoxicity study, other, Oral, Gavage/Intubation, dose end: 21 PND, group: cannot be grouped
[7] = tested on: rat; details: Developmental neurotoxicity study, sprague dawley, Oral, Gavage/Intubation, dose end: 70 PND, group: cannot be grouped
[8] = tested on: mouse; details: Subchronic oral toxicity in rodents, b6c3f1, Feed, dose end: 13 week, group: systemic
[9] = tested on: rat; details: Subchronic oral toxicity in rodents, fischer, Feed, dose end: 13 week, group: systemic, systemic / clinical chemistry / cholesterol / cholesterol + systemic / clinical chemistry / protein / protein + systemic / clinical …
[10] = tested on: rat; details: Developmental neurotoxicity study; sprague dawley; Oral; Gavage/Intubation; dose end: 112 PND; group: cannot be grouped; systemic / organ weight / brain / absolute
[11] = tested on: rat; details: Subchronic oral toxicity in rodents, fischer, Feed, dose end: 13 week, group: systemic; remark: listed apart in the source
[12] = tested on: rabbit; details: Prenatal developmental toxicity study, himalayan, Oral, Gavage/Intubation, dose end: 28 GD
[13] = tested on: rat; details: Multigenerational reproductive toxicity study, wistar (Chbb = THOM-SPF), Oral, Feed, dose end: 1 generation
[14] = tested on: rat; details: Combined chronic toxicity/carcinogenicity; wistar; Oral; Feed; dose end: 104 week; group: systemic; systemic / in life observation / body weight / body weight + systemic / in life observation / body weight / body weight gain + systemic / …
[15] = tested on: dog; details: Subchronic oral toxicity in nonrodent, beagle, Feed, dose end: 52 week, group: systemic, systemic / clinical chemistry / albumin / albumin + systemic / clinical chemistry / cholesterol / cholesterol + systemic / clinical …
[16] = tested on: mouse; details: Subchronic oral toxicity in rodents, b6c3f1, Feed, dose end: 91 day, group: systemic
[17] = tested on: rat; details: Subchronic oral toxicity in rodents, wistar, Feed, dose end: 3 month
[18] = tested on: rat; details: Prenatal developmental toxicity study, wistar, Oral, Gavage/Intubation, dose end: 19 GD
[19] = tested on: dog; details: Chronic toxicity; beagle; Oral; Capsule; dose end: 52 week; group: systemic; systemic / in life observation / body weight / body weight + systemic / in life observation / body weight / body weight gain + systemic / …
[20] = systemic / in life observation / body weight / body weight + systemic / in life observation / body weight / body weight gain
[21] = systemic / in life observation / body weight / body weight + systemic / in life observation / body weight / body weight gain + systemic / in…
[22] = systemic / in life observation / body weight / body weight
[23] = systemic / in life observation / body weight / body weight + developmental / offspring survival late / [other] / [other] + systemic / in …
[24] = systemic / in life observation / body weight / body weight + systemic / organ weight / liver / absolute
[25] = developmental / offspring survival late / [other] / [other] + systemic / in life observation / clinical signs / ataxia + systemic / in life …
[26] = systemic / in life observation / clinical signs / head tilt
[27] = systemic / in life observation / body weight / body weight + systemic / in life observation / body weight / body weight gain + developmental…
[28] = systemic / in life observation / body weight / body weight + systemic / in life observation / body weight / body weight gain + systemic / …
[29] = group: developmental, developmental / developmental malformation / bone / absent
[30] = group: maternal, reproductive / reproductive performance / postimplantation loss / postimplantation loss + reproductive / reproductive performance / …
[31] = group: maternal, systemic / in life observation / body weight / body weight gain + systemic / in life observation / food consumption / food consumption + …
[32] = group: offspring, systemic / in life observation / body weight / offspring (pup) weight
[33] = group: parental, systemic / in life observation / body weight / body weight + systemic / in life observation / body weight / body weight gain + systemic / in…
[34] = systemic / clinical chemistry / triglycerides / triglycerides + systemic / clinical chemistry / urea nitrogen / urea + systemic / in life …
[35] = systemic / pathology microscopic / stomach / erosion
[36] = group: cholinesterase, cholinesterase / cholinesterase / cholinesterase / cholinesterase (che)
[37] = group: systemic, systemic / in life observation / body weight / body weight + systemic / in life observation / body weight / body weight gain + systemic / in…
[38] = group: developmental, developmental / developmental malformation / bone / cervical + developmental / developmental malformation / kidney / dilated renal pelvis
[39] = group: maternal, systemic / in life observation / body weight / body weight + systemic / in life observation / body weight / body weight gain + systemic / in…

`O=C1NC(=O)C(c2ccccc2)(c2ccccc2)N1` [5,5-Diphenylhydantoin] was tested, and the LEL [1, 20] was 122 mg/kg/day, the LOAEL [1, 20] was 122 mg/kg/day and the NEL [1, 21] was 60.7 mg/kg/day. The NOAEL [1, 21] was 60.7 mg/kg/day, the LEL [2] was 20.5 mg/kg/day and the LOAEL [2] was 20.5 mg/kg/day. For the same molecule, the NEL [2] was less than 20.5 mg/kg/day, the NOAEL [2] was less than 20.5 mg/kg/day and the LEL [3, 22] was 100 mg/kg/day. For the same molecule, the NEL [3, 22] was less than 100 mg/kg/day, the LOAEL [3, 23] was greater than 200 mg/kg/day and the NOAEL [3, 23] was no less than 200 mg/kg/day. The NEL [4, 22] was 12.5 mg/kg/day, the LEL [4, 24] was 25 mg/kg/day and the LOAEL [4, 24] was greater than 25 mg/kg/day. The NOAEL [4, 24] was no less than 25 mg/kg/day, the LEL [5] was 200 mg/kg/day and the LOAEL [5] was greater than 200 mg/kg/day. The NEL [5] was less than 200 mg/kg/day, the NOAEL [5] was no less than 200 mg/kg/day and the LOAEL [6, 25] was greater than 35 mg/kg/day. For the same molecule, the NOAEL [6, 25] was no less than 35 mg/kg/day, the LEL [6, 26] was 10 mg/kg/day and the NEL [6, 26] was less than 10 mg/kg/day. It also gave an NEL [7, 20] of 150 mg/kg/day, an LEL [7, 27] of 200 mg/kg/day and an LOAEL [7, 27] greater than 200 mg/kg/day. For the same molecule, the NOAEL [7, 27] was no less than 200 mg/kg/day, the LEL [8, 20] was 11.2 mg/kg/day and the NEL [8, 20] was less than 11.2 mg/kg/day. It also gave an LOAEL [8, 28] of 90 mg/kg/day, an NOAEL ([8]; systemic / pathology microscopic / liver / hypertrophy + systemic / in life observation / mortality / mortality) of 45 mg/kg/day and an LEL [9] of 50 mg/kg/day. It also gave an LOAEL [9] greater than 100 mg/kg/day, an NEL [9] of 25 mg/kg/day and an NOAEL [9] of no less than 100 mg/kg/day. It also gave an LEL [10] of 100 mg/kg/day, an LOAEL [10] greater than 100 mg/kg/day and an NEL [10] of 50 mg/kg/day. For the same molecule, the NOAEL [10] was no less than 100 mg/kg/day, the LEL [11, 20] was 122 mg/kg/day and the LOAEL [11, 28] was 234 mg/kg/day. The NEL [11, 28] was 60.7 mg/kg/day and the NOAEL [11, 28] was 122 mg/kg/day.

With `COC(=O)N(OC)c1ccccc1COc1ccn(-c2ccc(Cl)cc2)n1` [Pyraclostrobin] the LEL [12, 29] was 20 mg/kg/day, the LOAEL [12, 29] was greater than 20 mg/kg/day and the NEL [12, 29] was 10 mg/kg/day. For the same molecule, the NOAEL [12, 29] was no less than 20 mg/kg/day, the LOAEL [12, 30] was 10 mg/kg/day and the NOAEL [12, 30] was 5 mg/kg/day. For the same molecule, the LEL [12, 31] was 5 mg/kg/day, the NEL [12, 31] was less than 5 mg/kg/day and the LEL [13, 32] was 20.5 mg/kg/day. It also gave an LOAEL [13, 32] of 20.5 mg/kg/day, an NEL [13, 32] of less than 20.5 mg/kg/day and an NOAEL [13, 32] of less than 20.5 mg/kg/day. For the same molecule, the LOAEL ([13]; group: parental, systemic / in life observation / body weight / body weight + systemic / in life observation / body weight / body weight gain) was 39.9 mg/kg/day, the LEL [13, 33] was 39.9 mg/kg/day and the NEL [13, 33] was 20.5 mg/kg/day. The NOAEL [13, 33] was 20.5 mg/kg/day, the LEL [14] was 9.2 mg/kg/day and the LOAEL [14] was 9.2 mg/kg/day. For the same molecule, the NEL [14] was 3.4 mg/kg/day, the NOAEL [14] was 3.4 mg/kg/day and the LEL [15] was 10.8 mg/kg/day. For the same molecule, the LOAEL [15] was 10.8 mg/kg/day, the NEL [15] was 5.4 mg/kg/day and the NOAEL [15] was 5.4 mg/kg/day. For the same molecule, the LOAEL [16, 34] was 30.4 mg/kg/day, the NOAEL [16, 34] was 9.2 mg/kg/day and the LEL [16, 35] was 12.9 mg/kg/day. The NEL [16, 35] was less than 12.9 mg/kg/day, the LEL [17, 36] was 79.7 mg/kg/day and the LOAEL [17, 36] was greater than 119 mg/kg/day. It also gave an NEL [17, 36] of 40.8 mg/kg/day, an NOAEL [17, 36] of no less than 119 mg/kg/day and an LOAEL [17, 37] of 34.7 mg/kg/day. It also gave an NEL [17, 37] of 3.5 mg/kg/day, an NOAEL [17, 37] of 10.7 mg/kg/day and an LEL ([17]; group: systemic, systemic / pathology microscopic / spleen / histiocytosis) of 10.7 mg/kg/day. For the same molecule, the LEL [18, 38] was 50 mg/kg/day, the LOAEL [18, 38] was 50 mg/kg/day and the NEL [18, 38] was 25 mg/kg/day. The NOAEL [18, 38] was 25 mg/kg/day, the LEL [18, 39] was 25 mg/kg/day and the LOAEL [18, 39] was 25 mg/kg/day. The NEL [18, 39] was 10 mg/kg/day and the NOAEL [18, 39] was 10 mg/kg/day.

`CC(C)[C@@H](Nc1ccc(C(F)(F)F)cc1Cl)C(=O)OC(C#N)c1cccc(Oc2ccccc2)c1` (some centres not stated) [tau-Fluvalinate] gave an LEL [19] of 12 mg/kg/day, an LOAEL [19] of 12 mg/kg/day and an NEL [19] of 3 mg/kg/day. It also gave an NOAEL [19] of 3 mg/kg/day.
